Results reported in patent publication US20230286973A1, “PROTEIN SECRETION INHIBITORS” (KEZAR LIFE SCIENCES, priority 2020, published 2023).
Like-named read-outs stand apart in the source and are kept apart here.

Experiments:
[1] = tested on: multiple myeloma cell line U266B1; assay: U266 Cell Viability Assay; assay type: cell-based, human; conditions: Homo sapiens, U-266, 48 h, U266B1 cells, Celltiter-Glo
Procedure, shortened: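 CellTiter-Glo luminescence was read after a 48 h compound exposure (37 °C, 5% CO2) of human U266B1 myeloma cells grown in 10% FBS-supplemented RPMI 1640. Data for structures shown without defined stereochemistry refer to stereoisomer mixtures.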

[2] = tested on: IL-2-FL/Gaussia Luciferase; assay: Dox Induced IL2-FL-Gluc Assay; assay type: cell-based; conditions: for IC50: 24 hr Dox induction, 293FRT/TO cells, read-out: 24 hr Dox Inducible IL2FLGluc 293FRT/TO: Mean IC50; for 24 hr Dox Inducible IL2FLGluc 293FRT/TO: IL2/PD1: ratio of IL2FLGluc IC50 to PD1ssGluc IC50
Procedure, shortened: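 Compounds in DMSO/medium with doxycycline were applied to a 293 T-REx stable line expressing an IL-2 (aa 1-153)–Gaussia luciferase fusion under tetracycline-regulated control, cells seeded one day earlier; incubation at 37 °C, 5% CO2. Structures drawn without stereochemistry were tested as stereoisomer mixtures.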

[3] = Liver Microsome Stability Assay (rat); conditions: rat liver microsomes, with NADPH, 1.0 uM compound
Protocol: (§1) Stability of a compound was assessed in the presence of liver microsomes from various sources—mouse, rat, monkey and human liver microsomes. 1.0 uM compound, 0.4% DMSO in 0.1 M Potassium Phosphate with 1.0 mg/mL liver microsomes, were incubated at 37° C. with or without 1 mM NADPH. The samples were quenched at 0, and 30 minutes.

[4] = tested on: PD1-ss+10aa/Gaussia Luciferase; assay: Dox-Induced PD1-ss-Gluc Assay; assay type: cell-based; conditions: 24 hr Dox induction, 293FRT/TO cells, read-out: 24 hr Dox Inducible PD1ssGluc 293FRT/TO: Mean IC50
Procedure, shortened: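 Stable Flp-In 293 T-REx cells carried a doxycycline-inducible construct of Gaussia luciferase fused to the PD1 signal sequence plus 10 amino acids. Cells were plated the day before, then treated with compound dilutions in DMSO/media containing doxycycline at 37 °C, 5% CO2.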

[5] = tested on: multiple myeloma cell line NCI-H929; assay: H929 Cell Viability Assay; assay type: cell-based, human; conditions: Homo sapiens, NCI-H929, 48 h, NCI-H929 cells, Celltiter-Glo
Procedure, shortened: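 Luminescent CellTiter-Glo read-out of viability after a 48 h exposure (37° C, 5% CO2) of NCI-H929 myeloma cells to compound dilutions in RPMI 1640 plus 10% FBS. Data for structures drawn without stereochemistry refer to stereoisomer mixtures.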

[6] = Liver Microsome Stability Assay (mouse); conditions: mouse liver microsomes, with NADPH, 1.0 uM compound
Protocol: as §1

[7] = Liver Microsome Stability Assay (human); conditions: human liver microsomes, with NADPH, 1.0 uM compound
Protocol: as §1

[8] = Liver Microsome Stability Assay (monkey); conditions: monkey liver microsomes, with NADPH, 1.0 uM compound
Protocol: as §1

[9] = tested on: TNFα-FL/Gaussia Luciferase; assay: Dox Induced TNFα-FL-Gluc Assay; assay type: cell-based; conditions: for IC50: 24 hr Dox induction, 293FRT/TO cells, read-out: 24 hr Dox Inducible TNFaFLGluc 293FRT/TO: Mean IC50; for 24 hr Dox Inducible TNFaFLGluc 293FRT/TO: TNF/PD1: ratio of TNFaFLGluc IC50 to PD1ssGluc IC50
Procedure, shortened: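 Compound was added with doxycycline to cells plated a day earlier, incubating at 37° C under 5% CO2. The reporter line is 293 T-REx expressing a TNFα (1-233)–Gaussia luciferase fusion under tetracycline-regulated control.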

[10] = tested on: HER3-ss+4aa/Gaussia Luciferase; assay: Dox-Induced Her3-ss-Gluc Assay; assay type: cell-based; conditions: 24 hr Dox induction, 293FRT/TO cells, read-out: 24 hr Dox Inducible Her3(ss + 4)Gluc 293FRT/TO: Mean IC50
Procedure, shortened: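 Compounds were diluted in DMSO/media containing doxycycline. They were added to Flp-In 293 T-REx cells plated the previous day, then incubated at 37 °C under 5% CO2. These cells stably express, under T-REx control, Gaussia luciferase fused to the HER3 signal sequence plus 4 amino acids.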

[11] = '<=>' given where both are I.A.

Row | Structure (SMILES) | EC50 [1] [µM] | IC50 [2] [µM] | 24 hr Dox Inducible IL2FLGluc 293FRT/TO: IL2/PD1 [2] | Liver Microsome Stability (Multiple Species): Rat - % Remaining after 30 min w/NADPH [3] [%] | IC50 [4] [µM] | EC50 [5] [µM] | Liver Microsome Stability (Multiple Species): Mouse - % Remaining after 30 min w/NADPH [6] [%] | Liver Microsome Stability (Multiple Species): Human - % Remaining after 30 min w/NADPH [7] [%] | Liver Microsome Stability (Multiple Species): Monkey - % Remaining after 30 min w/NADPH [8] [%] | IC50 [9] [µM] | 24 hr Dox Inducible TNFaFLGluc 293FRT/TO: TNF/PD1 [9] | IC50 [10] [µM] | IC50 ([2]; mean) [µM] | 24 hr Dox Inducible IL2FLGluc 293FRT/TO: IL2/PD1 [2, 11] | IC50 ([4]; mean) [µM] | IC50 ([9]; mean) [µM] | 24 hr Dox Inducible TNFaFLGluc 293FRT/TO: TNF/PD1 [9, 11] | IC50 ([10]; mean) [µM]
1 | CC(C)n1cc(/C=C/c2csc(NC(=O)c3cccn3Cc3ccnc(F)c3)n2)nc1CO [Compound B103, (E)-1-((2-fluoropyridin-4-yl)methyl)-N-(4-(2-(2-(hydroxymethyl)-1-isopropyl-1H-imidazol-4-yl)vinyl)thiazol-2-yl)-1H-pyrrole-2-carboxamide] | > 25 | > 25 | >2.5 | 19.5 | 10.1 | > 25 | 28.7 | 1.87 | 1.64 | > 25 | >2.49 | > 25 | – | – | – | – | – | –
2 | O=C(Nc1nc([C@H]2CCCN2c2ccccc2)cs1)c1cccn1Cc1ccnc(Br)c1 [Compound E23, (R)-1-((2-bromopyridin-4-yl)methyl)-N-(4-(1-phenylpyrrolidin-2-yl)thiazol-2-yl)-1H-pyrrole-2-carboxamide] | > 25 | – | – | 4.14 | – | 18 | 6.17 | 3 | 2.07 | – | – | – | 0.773 | 2.3 | 0.338 | 11.4 | 33.8 | 0.629
3 | Cc1nc(/C=C/c2csc(NC(=O)c3cccn3Cc3ccncc3)n2)co1 [Compound B2, (E)-N-(4-(2-(2-methyloxazol-4-yl)vinyl)thiazol-2-yl)-1-(pyridin-4-ylmethyl)-1H-pyrrole-2-carboxamide] | > 25 | > 25 | 110 | 1.8 | 0.22 | > 25 | 7.06 | 0.69 | 0.9 | > 25 | >114 | > 25 | – | – | – | – | – | –
4 | O=C(Nc1nc([C@H]2CCCN2c2ccc(O[C@@H]3CCCNC3)cc2)cs1)c1cccn1Cc1ccnc(F)c1 [Compound A87, 1-((2-fluoropyridin-4-yl)methyl)-N-(4-((R)-1-(4-(((R)-piperidin-3-yl)oxy)phenyl)pyrrolidin-2-yl)thiazol-2-yl)-1H-pyrrole-2-carboxamide] | 8.83 | 2.58 | 4.1 | 61.8 | 0.636 | 6.31 | 75.6 | 51.1 | 32.6 | 21.5 | 33.8 | 1.15 | – | – | – | – | – | –
5 | CC(=O)N1CCOC(/C=C/c2csc(NC(=O)c3cccn3Cc3ccncc3)n2)C1 (stereo not drawn) [Compound B10, (E)-N-(4-(2-(4-acetylmorpholin-2-yl)vinyl)thiazol-2-yl)-1-(pyridin-4-ylmethyl)-1H-pyrrole-2-carboxamide] | > 25 | > 25 | 1.3 | 2.71 | 20 | > 25 | 9.22 | 1.05 | 0.1 | > 25 | >1.25 | > 25 | – | – | – | – | – | –
6 | O=C(Nc1nc(/C=C/c2cn3c(n2)CCC3)cs1)c1cccn1Cc1ccnc(F)c1 [Compound B62, (E)-N-(4-(2-(6,7-dihydro-5H-pyrrolo[1,2-a]imidazol-2-yl)vinyl)thiazol-2-yl)-1-((2-fluoropyridin-4-yl)methyl)-1H-pyrrole-2-carboxamide] | > 25 | > 25 | >78 | 2.51 | 0.321 | > 24.3 | 11.5 | 0.2 | 2.64 | > 25 | >77.9 | > 25 | – | – | – | – | – | –
7 | CC(=O)Nc1ccc(N2CCC[C@@H]2c2csc(NC(=O)c3cc(C)cn3Cc3ccnc(F)c3)n2)cc1 [Compound A164, (R)-N-(4-(1-(4-acetamidophenyl)pyrrolidin-2-yl)thiazol-2-yl)-1-((2-fluoropyridin-4-yl)methyl)-4-methyl-1H-pyrrole-2-carboxamide] | > 25 | 0.0191 | 2.4 | 19.4 | 0.00795 | 0.274 | 18.8 | 36.5 | 32.3 | 0.148 | 18.7 | 0.0173 | – | – | – | – | – | –
8 | NC(=O)Nc1ccc(N2CCC[C@@H]2c2csc(NC(=O)c3cccn3Cc3ccnc(F)c3)n2)cc1 [Compound A123, (R)-1-((2-fluoropyridin-4-yl)methyl)-N-(4-(1-(4-ureidophenyl)pyrrolidin-2-yl)thiazol-2-yl)-1H-pyrrole-2-carboxamide] | > 25 | 0.0243 | 3 | 44.7 | 0.00821 | 0.289 | 23.3 | 49.3 | 31.6 | 0.143 | 17.4 | 0.0181 | – | – | – | – | – | –
9 | O=C(Nc1nc([C@H]2CCCN2c2ccccc2)cs1)c1cccn1CC1CCC(F)(F)C1 (stereo partly drawn) [Compound C123, 1-((3,3-difluorocyclopentyl)methyl)-N-(4-((R)-1-phenylpyrrolidin-2-yl)thiazol-2-yl)-1H-pyrrole-2-carboxamide] | > 25 | – | – | 6.16 | – | > 25 | 23.6 | 58.5 | 3.11 | – | – | – | 0.776 | 2.1 | 0.377 | 8.55 | 22.7 | 0.62
